# Test results taken from ChEMBL document CHEMBL4251552, “Synthesis of piperazine sulfonamide analogs as diabetic-II inhibitors and their molecular docking study” (Eur J Med Chem, 2017).
# Biological target: T1, Pancreatic alpha-amylase (Sus scrofa, UniProt P00690)
# T1 sequence (P00690 whole entry): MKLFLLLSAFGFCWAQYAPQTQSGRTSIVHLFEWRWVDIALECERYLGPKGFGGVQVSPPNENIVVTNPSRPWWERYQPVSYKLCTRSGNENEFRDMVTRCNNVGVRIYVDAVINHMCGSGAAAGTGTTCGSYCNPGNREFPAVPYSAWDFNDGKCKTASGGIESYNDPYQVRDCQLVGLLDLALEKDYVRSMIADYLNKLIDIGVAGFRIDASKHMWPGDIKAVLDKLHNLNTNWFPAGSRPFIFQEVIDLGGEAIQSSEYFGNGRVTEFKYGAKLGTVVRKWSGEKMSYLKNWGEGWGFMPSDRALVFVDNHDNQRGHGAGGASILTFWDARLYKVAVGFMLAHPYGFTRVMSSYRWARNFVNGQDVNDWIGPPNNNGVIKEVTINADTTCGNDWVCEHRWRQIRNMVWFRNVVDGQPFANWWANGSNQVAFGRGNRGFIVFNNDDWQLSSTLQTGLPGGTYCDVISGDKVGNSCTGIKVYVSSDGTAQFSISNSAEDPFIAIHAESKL
# Assay: Inhibition of porcine pancreatic alpha-amylase using starch as substrate preincubated for 10 mins followed by substrate addition measured after 10 mins by dinitrosalicylic acid color reagent based assay
row,Structure (SMILES),IC50
1,Cc1ccc(CN2CCN(S(=O)(=O)c3cc(Cl)ccc3Cl)CC2)cc1,2880 nM
2,Cc1ccc(CN2CCN(S(=O)(=O)c3ccc([N+](=O)[O-])cc3[N+](=O)[O-])CC2)cc1,2930 nM
3,Cc1ccc(CN2CCN(S(=O)(=O)c3ccccc3[N+](=O)[O-])CC2)cc1,3980 nM
4,Cc1ccc(CN2CCN(S(=O)(=O)c3cc(Cl)c(Cl)cc3Cl)CC2)cc1,3520 nM
5,Cc1ccc(CN2CCN(S(=O)(=O)c3ccccc3C)CC2)cc1,2880 nM
6,Cc1ccc(CN2CCN(S(=O)(=O)c3ccccc3Cl)CC2)cc1,3200 nM
7,Cc1ccc(CN2CCN(S(=O)(=O)c3ccc(Cl)cc3Cl)CC2)cc1,3140 nM
8,Cc1ccc(CN2CCN(S(=O)(=O)c3cccc(Cl)c3Cl)CC2)cc1,2670 nM
9,Cc1ccc(CN2CCN(S(=O)(=O)c3cc(Cl)cc(Cl)c3)CC2)cc1,3560 nM

# Further lines, results first:
row,IC50,Structure (SMILES)
1,1570 nM,Cc1ccc(CN2CCN(S(=O)(=O)c3ccc(F)cc3)CC2)cc1
2,3050 nM,Cc1ccc(CN2CCN(S(=O)(=O)c3ccccc3F)CC2)cc1
3,2060 nM,COc1ccc(S(=O)(=O)N2CCN(Cc3ccc(C)cc3)CC2)cc1
4,2750 nM,Cc1ccc(CN2CCN(S(=O)(=O)c3cccc([N+](=O)[O-])c3)CC2)cc1
5,2820 nM,Cc1ccc(CN2CCN(S(=O)(=O)c3ccc([N+](=O)[O-])cc3)CC2)cc1
6,2870 nM,Cc1ccc(CN2CCN(S(=O)(=O)c3ccc(C)cc3)CC2)cc1
7,2350 nM,Cc1ccc(CN2CCN(S(=O)(=O)c3ccc(Cl)cc3)CC2)cc1
8,3450 nM,Cc1ccc(CN2CCN(S(=O)(=O)c3cccc(Br)c3)CC2)cc1
9,2980 nM,Cc1ccc(CN2CCN(S(=O)(=O)c3ccc(Cl)c(Cl)c3)CC2)cc1
10,2120 nM,Cc1ccc(CN2CCN(S(=O)(=O)c3ccc(Br)cc3)CC2)cc1
